The source made the active and inactive calls. No cut-off for these calls is given here.
What was measured:
Acetylcholinesterase [1] = molecular target: Acetylcholinesterase (Homo sapiens, UniProt P22303); experiment: Inhibition of human AChE using acetylthiocholine iodide as substrate preincubated for 5 mins followed by substrate addition by DTNB reagent based Ellman's method
Acetylcholinesterase [2] = molecular target: Acetylcholinesterase (Electrophorus electricus, UniProt O42275); experiment: Inhibition of electric eel AChE using acetylthiocholine iodide as substrate preincubated for 5 mins followed by substrate addition by DTNB reagent based Ellman's method
Acetylcholinesterase (Electrophorus electricus, UniProt O42275), sequence (O42275 whole entry): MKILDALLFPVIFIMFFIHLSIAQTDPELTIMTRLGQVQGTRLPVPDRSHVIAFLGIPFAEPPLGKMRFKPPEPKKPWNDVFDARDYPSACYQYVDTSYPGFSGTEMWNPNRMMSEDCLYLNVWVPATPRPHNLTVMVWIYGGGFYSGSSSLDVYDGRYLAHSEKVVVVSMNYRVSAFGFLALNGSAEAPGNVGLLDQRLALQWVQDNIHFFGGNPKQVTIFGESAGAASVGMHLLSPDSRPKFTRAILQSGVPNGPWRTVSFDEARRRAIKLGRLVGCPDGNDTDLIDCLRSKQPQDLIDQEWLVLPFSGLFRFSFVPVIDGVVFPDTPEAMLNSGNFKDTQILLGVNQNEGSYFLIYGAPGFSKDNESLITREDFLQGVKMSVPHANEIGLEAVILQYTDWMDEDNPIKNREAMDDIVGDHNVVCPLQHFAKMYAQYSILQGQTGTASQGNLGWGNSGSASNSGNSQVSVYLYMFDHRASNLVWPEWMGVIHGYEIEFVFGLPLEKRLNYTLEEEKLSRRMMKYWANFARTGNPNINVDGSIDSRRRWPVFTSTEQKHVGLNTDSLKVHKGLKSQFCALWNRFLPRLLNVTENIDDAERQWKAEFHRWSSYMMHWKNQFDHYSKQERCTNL

in vitro = conditions: PAMPA
[3] = molecular target: Cholinesterase (Equus caballus) (UniProt P81908); experiment: Inhibition of equine serum BuChE using butyrylthiocholine iodide as substrate at 10 uM preincubated for 5 mins followed by substrate addition by DTNB reagent based Ellman's method relative to control; format: cell-free
Cholinesterase (Equus caballus), sequence (P81908 whole entry): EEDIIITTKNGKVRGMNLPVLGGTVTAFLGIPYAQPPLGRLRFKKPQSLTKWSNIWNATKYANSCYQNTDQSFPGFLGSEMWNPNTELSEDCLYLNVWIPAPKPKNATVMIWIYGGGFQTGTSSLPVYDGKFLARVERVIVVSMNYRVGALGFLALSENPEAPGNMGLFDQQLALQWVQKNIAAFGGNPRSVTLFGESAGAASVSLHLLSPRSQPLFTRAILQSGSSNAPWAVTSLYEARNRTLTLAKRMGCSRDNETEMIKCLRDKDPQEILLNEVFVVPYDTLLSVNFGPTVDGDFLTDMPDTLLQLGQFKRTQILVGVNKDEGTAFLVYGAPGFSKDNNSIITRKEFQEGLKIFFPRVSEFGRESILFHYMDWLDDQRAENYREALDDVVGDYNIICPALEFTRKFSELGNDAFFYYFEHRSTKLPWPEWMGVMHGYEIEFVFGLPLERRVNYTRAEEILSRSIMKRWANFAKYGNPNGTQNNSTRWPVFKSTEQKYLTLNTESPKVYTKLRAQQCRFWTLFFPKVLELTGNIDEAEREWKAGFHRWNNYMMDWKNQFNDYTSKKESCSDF

[4] = molecular target: Cholinesterase (Homo sapiens) (UniProt P06276); experiment: Inhibition of human BuChE using butyrylthiocholine iodide as substrate at 10 uM preincubated for 5 mins followed by substrate addition by DTNB reagent based Ellman's method relative to control
Cholinesterase (Homo sapiens), sequence (P06276 whole entry): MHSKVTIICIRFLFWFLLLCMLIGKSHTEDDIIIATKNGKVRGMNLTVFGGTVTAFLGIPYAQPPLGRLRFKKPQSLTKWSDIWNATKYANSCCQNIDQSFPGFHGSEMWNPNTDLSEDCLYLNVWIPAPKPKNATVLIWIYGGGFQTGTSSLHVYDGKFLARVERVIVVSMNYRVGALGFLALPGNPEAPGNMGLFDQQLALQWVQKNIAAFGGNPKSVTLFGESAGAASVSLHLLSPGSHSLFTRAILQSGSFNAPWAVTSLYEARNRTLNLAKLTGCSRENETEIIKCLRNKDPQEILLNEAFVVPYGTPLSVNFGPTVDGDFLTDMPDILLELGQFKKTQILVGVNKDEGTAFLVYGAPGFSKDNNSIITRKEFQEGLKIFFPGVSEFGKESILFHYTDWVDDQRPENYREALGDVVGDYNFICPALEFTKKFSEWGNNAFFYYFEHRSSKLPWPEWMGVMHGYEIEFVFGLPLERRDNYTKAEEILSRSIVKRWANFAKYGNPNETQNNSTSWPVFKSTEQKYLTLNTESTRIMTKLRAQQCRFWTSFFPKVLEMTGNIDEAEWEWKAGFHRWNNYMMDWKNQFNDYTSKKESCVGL

[5] = molecular target: T1, Nuclear factor erythroid 2-related factor 2 (Mus musculus) (UniProt Q60795); experiment: Activation of NRF2 in mouse BV-2 cells assessed as increase in NQO1 protein expression at 7 uM by Western blotting analysis; format: cell-based; conditions: filed as activator, TDE = time-dependent effect
T1 sequence (whole entry): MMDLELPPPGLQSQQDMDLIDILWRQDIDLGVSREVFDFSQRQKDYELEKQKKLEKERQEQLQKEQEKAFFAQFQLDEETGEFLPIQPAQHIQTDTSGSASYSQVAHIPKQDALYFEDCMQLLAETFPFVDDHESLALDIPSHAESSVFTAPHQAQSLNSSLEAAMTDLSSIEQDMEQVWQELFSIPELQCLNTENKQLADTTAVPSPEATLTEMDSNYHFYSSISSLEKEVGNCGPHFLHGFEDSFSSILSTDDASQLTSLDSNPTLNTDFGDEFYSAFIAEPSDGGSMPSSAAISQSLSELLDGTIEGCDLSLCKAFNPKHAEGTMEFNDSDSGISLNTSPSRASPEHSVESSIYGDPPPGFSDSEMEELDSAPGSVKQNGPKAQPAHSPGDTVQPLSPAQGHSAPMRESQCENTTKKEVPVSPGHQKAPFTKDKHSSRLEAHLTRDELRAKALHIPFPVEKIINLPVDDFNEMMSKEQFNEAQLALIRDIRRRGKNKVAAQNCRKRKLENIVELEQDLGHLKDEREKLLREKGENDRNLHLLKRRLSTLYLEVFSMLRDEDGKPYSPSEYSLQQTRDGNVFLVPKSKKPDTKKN

[6] = Acute toxicity in Kunming mouse assessed as kidney pathological change at 625 to 2500 mg/kg,po administration for 14 days by Hematoxylin and eosin based staining analysis; format: organism-based; conditions: in vivo, 336 h, dose 625-2500 mg/kg, time 14 day
[7] = molecular target: T1, Nuclear factor erythroid 2-related factor 2 (Mus musculus); experiment: Activation of NRF2 in mouse BV-2 cells assessed as increase in NQO1 protein expression at 7 uM incubated for 3 to 9 hrs by Western blotting analysis; format: cell-based; conditions: filed as activator, time 3-9 hrs
[8] = Drug degradation in serum (unknown origin) incubated for 12 hrs by HPLC analysis; format: ADME, cell-free; conditions: read-out: Drug degradation
[9] = molecular target: T1, Nuclear factor erythroid 2-related factor 2 (Mus musculus); experiment: Activation of NRF2 in mouse BV-2 cells assessed as increase in GPX4 protein expression at 7 uM incubated for 3 to 9 hrs by Western blotting analysis; format: cell-based; conditions: filed as activator, time 3-9 hrs
BV-2 [10] = experiment: Anti-neuroinflammatory activity in mouse BV-2 cells assessed as reduction in LPS-induced COX-2 expression at 1 to 7 uM incubated for 6 hrs followed by LPS addition measured after 24 hrs by Western blotting analysis; format: functional, cell-based; conditions: dose 1-7 µM, time 30.0 hrs
[11] = molecular target: T1, Nuclear factor erythroid 2-related factor 2 (Mus musculus); experiment: Activation of NRF2 in mouse BV-2 cells assessed as increase in GPX4 protein expression at 7 uM by Western blotting analysis; format: cell-based; conditions: filed as activator, TDE = time-dependent effect
Mus musculus [12] = experiment: Antialzheimer activity in scopolamine-induced cognitive impairment Kunming mouse model assessed as increase in latency at 15 mg/kg,po administration by step-down assay; format: functional, organism-based
BV-2 [13] = experiment: Activation of NRF2/ARE in mouse BV-2 cells assessed as upregulation of nuclear NRF2 expression at 7 uM incubated for 4 hrs by Western blotting analysis; format: cell-based; conditions: filed as activator
[14] = molecular target: T1, Nuclear factor erythroid 2-related factor 2 (Mus musculus); experiment: Activation of NRF2 in mouse BV-2 cells assessed as increase in GPX4 protein expression incubated for 8 hrs by Western blotting analysis; format: cell-based; conditions: filed as activator
BV-2 [15] = experiment: Anti-neuroinflammatory activity in mouse BV-2 cells assessed as reduction in LPS-induced iNOS expression at 1 to 7 uM incubated for 6 hrs followed by LPS addition measured after 24 hrs by Western blotting analysis; format: functional, cell-based; conditions: dose 1-7 µM, time 30.0 hrs
BV-2 [16] = experiment: Cytoprotective activity against H2O2-induced toxicity in mouse BV-2 cells assessed as decrease in ROS production incubated for 6 hrs by DCFH-DA staining based inverted fluorescence microscopic analysis; format: functional, cell-based
[17] = Stability of the compound in serum (unknown origin) assessed as drug degradation incubated for 8 hrs by HPLC analysis; format: ADME, cell-free
BV-2 [18] = experiment: Anti-neuroinflammatory activity in mouse BV-2 cells assessed as reduction in LPS-induced TNF-alpha production incubated for 6 hrs followed by LPS addition measured after 24 hrs by ELISA; format: functional, cell-based; conditions: time 30.0 hrs
BV-2 [19] = experiment: Anti-neuroinflammatory activity in mouse BV-2 cells assessed as reduction in LPS-induced NO production incubated for 6 hrs followed by LPS addition measured after 24 hrs by Griess reagent based assay; format: functional, cell-based; conditions: time 30.0 hrs
[20] = Acute toxicity in Kunming mouse assessed as heart pathological change at 625 to 2500 mg/kg,po administration for 14 days by Hematoxylin and eosin based staining analysis; format: organism-based; conditions: in vivo, 336 h, dose 625-2500 mg/kg, time 14 day
[21] = Acute toxicity in Kunming mouse assessed as change in body weight at 625 to 2500 mg/kg,po administration for 14 days; format: organism-based; conditions: in vivo, 336 h, dose 625-2500 mg/kg, time 14 day
BV-2 [22] = experiment: Activation of NRF2/ARE in mouse BV-2 cells assessed as upregulation of cytosolic NRF2 expression at 7 uM incubated for 10 hrs by Western blotting analysis; format: cell-based
[23] = Acute toxicity in Kunming mouse assessed as behavioral abnormalities at 625 to 2500 mg/kg,po administration for 4 hrs; format: organism-based; conditions: in vivo, dose 625-2500 mg/kg
[24] = molecular target: T1, Nuclear factor erythroid 2-related factor 2 (Mus musculus); experiment: Activation of NRF2 in mouse BV-2 cells assessed as increase in HO-1 protein expression incubated for 8 hrs by Western blotting analysis; format: cell-based; conditions: filed as activator
[25] = Acute toxicity in Kunming mouse assessed as liver pathological change at 625 to 2500 mg/kg,po administration for 14 days by Hematoxylin and eosin based staining analysis; format: organism-based; conditions: in vivo, 336 h, dose 625-2500 mg/kg, time 14 day
[26] = Acute toxicity in Kunming mouse assessed as brain pathological change at 625 to 2500 mg/kg,po administration for 14 days by Hematoxylin and eosin based staining analysis; format: organism-based; conditions: in vivo, 336 h, dose 625-2500 mg/kg, time 14 day
BV-2 [27] = experiment: Activation of NRF2/ARE in mouse BV-2 cells assessed as upregulation of NRF2 expression at 7 uM by Western blotting analysis; format: cell-based; conditions: filed as activator, TDE = time-dependent effect
Mus musculus [28] = experiment: Antialzheimer activity in scopolamine-induced cognitive impairment Kunming mouse model assessed as increase in latency at 7.5 mg/kg,po administration by step-down assay; format: functional, organism-based
BV-2 [29] = experiment: Cytoprotective activity against H2O2-induced toxicity in mouse BV-2 cells assessed as increase in cell viability incubated for 6 hrs by CCK-8 assay; format: functional, cell-based
[30] = molecular target: T1, Nuclear factor erythroid 2-related factor 2 (Mus musculus); experiment: Activation of NRF2 in mouse BV-2 cells assessed as increase in HO-1 protein expression at 7 uM incubated for 3 to 9 hrs by Western blotting analysis; format: cell-based; conditions: filed as activator, time 3-9 hrs
BV-2 [31] = experiment: Anti-neuroinflammatory activity in mouse BV-2 cells assessed as reduction in LPS-induced IL-6 production incubated for 6 hrs followed by LPS addition measured after 24 hrs by ELISA; format: functional, cell-based; conditions: time 30.0 hrs
[32] = molecular target: T1, Nuclear factor erythroid 2-related factor 2 (Mus musculus); experiment: Activation of NRF2 in mouse BV-2 cells assessed as increase in HO-1 protein expression at 7 uM by Western blotting analysis; format: cell-based; conditions: filed as activator, TDE = time-dependent effect
Mus musculus [33] = experiment: Antialzheimer activity in scopolamine-induced cognitive impairment Kunming mouse model assessed as decrease in number of latency error at po administration by step-down assay; format: functional, organism-based
Mus musculus [34] = experiment: Antialzheimer activity in scopolamine-induced cognitive impairment Kunming mouse model assessed as increase in latency at po administration by step-down assay; format: functional, organism-based
BV-2 [35] = experiment: Cytotoxicity against mouse BV-2 cells upto 10 uM incubated for 24 hrs by CCK-8 assay; format: toxicity, cell-based; conditions: bv-2, 24 h
[36] = Acute toxicity in Kunming mouse assessed as lung pathological change at 625 to 2500 mg/kg,po administration for 14 days by Hematoxylin and eosin based staining analysis; format: organism-based; conditions: in vivo, 336 h, dose 625-2500 mg/kg, time 14 day
[37] = molecular target: T1, Nuclear factor erythroid 2-related factor 2 (Mus musculus); experiment: Activation of NRF2 in mouse BV-2 cells assessed as increase in NQO1 protein expression incubated for 8 hrs by Western blotting analysis; format: cell-based; conditions: filed as activator
BV-2 [38] = experiment: Activation of NRF2/ARE in mouse BV-2 cells assessed as upregulation of NRF2 expression incubated for 8 hrs by Western blotting analysis; format: cell-based; conditions: filed as activator

Acetylcholinesterase (Homo sapiens, UniProt P22303), sequence (P22303 whole entry): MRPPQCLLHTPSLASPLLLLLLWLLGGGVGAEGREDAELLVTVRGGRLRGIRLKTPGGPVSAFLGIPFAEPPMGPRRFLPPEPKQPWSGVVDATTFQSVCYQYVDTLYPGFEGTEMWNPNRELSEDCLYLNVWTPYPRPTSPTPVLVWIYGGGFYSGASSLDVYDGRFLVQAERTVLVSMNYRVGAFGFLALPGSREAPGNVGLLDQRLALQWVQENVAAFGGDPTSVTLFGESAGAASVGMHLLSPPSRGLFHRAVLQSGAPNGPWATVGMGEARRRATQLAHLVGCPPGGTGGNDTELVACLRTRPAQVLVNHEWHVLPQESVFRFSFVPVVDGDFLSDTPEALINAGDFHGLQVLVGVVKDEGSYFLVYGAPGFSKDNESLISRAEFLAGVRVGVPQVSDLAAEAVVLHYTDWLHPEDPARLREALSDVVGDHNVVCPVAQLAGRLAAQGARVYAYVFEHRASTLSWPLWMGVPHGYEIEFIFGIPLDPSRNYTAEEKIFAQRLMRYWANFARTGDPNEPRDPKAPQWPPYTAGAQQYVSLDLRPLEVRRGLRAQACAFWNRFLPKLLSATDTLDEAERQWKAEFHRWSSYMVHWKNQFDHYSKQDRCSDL

Work on `COC(=O)/C=C/C(=O)Nc1cccc(OCCCCSC(=S)N2CCCCC2)c1` yielded an IC50 (Acetylcholinesterase [1]) of 210 nM, an IC50 (Acetylcholinesterase [2]) of 370 nM and a Papp at 18 h (in vitro) of 15.5 ×10⁻⁶ cm/s. The inhibition [3] was less than 5% and the inhibition [4] was less than 5%.
With `COC(=O)/C=C/C(=O)Nc1cccc(OCCCCSC(=S)N2CCCCC2C)c1` (stereo not drawn) the Activity [5] was “Tde”, the Activity [6] was “Non-Toxic” and the Activity [7] was “Active”. The metabolised at 12 h [8] was 50%, the Activity [9] was “Active” and the Activity (BV-2 [10]) was “Active”. The Activity [11] was “Tde”, the Activity (Mus musculus [12]) was “Active” and the Activity (BV-2 [13]) was “Active”. For the same compound, the Activity [14] was “Dose-Dependent Effect”, the Activity (BV-2 [15]) was “Active” and the Activity (BV-2 [16]) was “Dose-Dependent Effect”. The Stability [17] was “Unstable”, the IC50 (Acetylcholinesterase [1]) was 53 nM and the Activity (BV-2 [18]) was “Dose-Dependent Effect”. For the same compound, the IC50 (Acetylcholinesterase [2]) was 88 nM, the Activity (BV-2 [19]) was “Dose-Dependent Effect” and the Activity [20] was “Non-Toxic”. For the same compound, the Activity [21] was “Non-Toxic”, the Activity (BV-2 [22]) was “inactive” and the Activity [23] was “Non-Toxic”. The Activity [24] was “Dose-Dependent Effect”, the Activity [25] was “Non-Toxic” and the Papp at 18 h (in vitro) was 17.9 ×10⁻⁶ cm/s. The Activity [26] was “Non-Toxic”, the inhibition [3] was 7.5% and the Activity (BV-2 [27]) was “Tde”. The Activity (Mus musculus [28]) was “inactive”, the Activity (BV-2 [29]) was “Dose-Dependent Effect” and the Activity [30] was “Active”. The Activity (BV-2 [31]) was “Dose-Dependent Effect”, the inhibition [4] was less than 5% and the Activity [32] was “Tde”. The Activity (Mus musculus [33]) was “Dose-Dependent Effect”, the Activity (Mus musculus [34]) was “Dose-Dependent Effect” and the Activity (BV-2 [35]) was “Non-Toxic”. For the same compound, the Activity [36] was “Non-Toxic”, the Activity [37] was “Dose-Dependent Effect” and the Activity (BV-2 [38]) was “Dose-Dependent Effect”.
In the case of `COC(=O)/C=C/C(=O)Nc1cccc(OCCCCSC(=S)N(C)C)c1`, the IC50 (Acetylcholinesterase [2]) is reported as 56500 nM and the inhibition [3] is reported as 7.25%.
`COC(=O)/C=C/C(=O)Nc1ccc(OCCCCSC(=S)N2CCCCC2C)cc1` (stereo not drawn) gave an IC50 (Acetylcholinesterase [1]) of 380 nM, an IC50 (Acetylcholinesterase [2]) of 490 nM and a Papp at 18 h (in vitro) of 12.7 ×10⁻⁶ cm/s. The inhibition [3] was 18% and the inhibition [4] was less than 5%.
`COC(=O)/C=C/C(=O)Nc1cccc(OCCCCSC(=S)N2CCC(C)CC2)c1` gave an IC50 (Acetylcholinesterase [2]) of 19700 nM and an inhibition [3] of 8.48%.
`CC(=O)[C@H]1CC[C@H]2[C@@H]3CCC4=CC(=O)CC[C@]4(C)[C@H]3CC[C@]12C` [PROGESTERONE] gave a Papp at 18 h (in vitro) of 11.2 ×10⁻⁶ cm/s.
With `COC(=O)/C=C/C(=O)Nc1cccc(OCCCCCSC(=S)N2CCCCC2)c1` the IC50 (Acetylcholinesterase [2]) was 26700 nM and the inhibition [3] was less than 5%.
In the case of `COC(=O)/C=C/C(=O)Nc1cccc(OCCCCSC(=S)N2CCC(O)CC2)c1`, the IC50 (Acetylcholinesterase [2]) is reported as 76500 nM and the inhibition [3] is reported as 10.1%.

— ChEMBL document CHEMBL5344402, “A multi-target directed ligands strategy for the treatment of Alzheimer's disease: Dimethyl fumarate plus Tranilast modified Dithiocarbate as AChE inhibitor and Nrf2 activator” (Eur J Med Chem, 2022)
